Reference: US12331022B2, “Spiropiperidine allosteric modulators of nicotinic acetylcholine receptors” (Merck Sharp & Dohme LLC, priority 2019, dated 2025)
Where two headings read alike, the source gives them in different places.

Target: T1, human α7 nAChR (Homo sapiens, UniProt P36544)
T1 construct: host or cells: HEK
Experiment: Automated patch-clamp electrophysiology functional assay (Assay A)
Format: cell-based
Settings: HEK cell line stably expressing human RIC-3 and human α7, IonFlux HT whole-cell population patch, with or without 40 μM acetylcholine
Protocol: The α7 nAChR positive allosteric modulator (PAM) activity of the present compounds may be tested using assays known in the art. The α7 nAChR PAMs described herein have activities in an automated patch-clamp electrophysiology functional assay as described in the examples. The assay was performed using the IonFlux HT in a whole-cell, population patch configuration. See Golden et al. Assay Drug Dev. Technol. (2011) 9:608-619. The compounds were assessed for their ability to modulate the function of the human α7 nAChR stably expressed in a HEK cell line both in the presence, and in the absence of the natural α7 agonist acetylcholine. By performing a series of such measurements at different concentrations, the effective concentration of the α7 nAChR PAMs (EC50) was determined. See Spencer et al. Assay Drug Dev. Technol. (2012) 10:313-324.
Direct activation of α7 (agonism), and potentiation of acetylcholine-evoked α7 currents was determined as follows:
Automated patch-clamp electrophysiology was performed using the IonFlux HT (Fluxion Biosciences Inc., San Francisco, CA) in the whole-cell, population patch configuration. Test compounds were assessed for their ability to modulate the function of the α7 nicotinic acetylcholine receptor both in the presence, and in the absence of the natural α7 agonist acetylcholine. A HEK cell line stably expressing both human RIC-3 and human α7 (PrecisION hnAChR α7/RIC-3, Eurofins Pharma, St. Charles, MO) was cultured in 175 cm^2 triple-layer tissue culture flasks to no more than 90% confluency in DMEM/F-12 growth media supplemented with 10% heat-inactivated fetal bovine serum, 1% non-essential amino acids, 0.625 μg/mL Puromycin, and 400 μg/mL Geneticin. Immediately prior to assay, cells were detached by first aspirating growth media, rinsing with Dulbecco's phosphate buffered saline, and then adding 10 mL of Accutase (Innovative Cell Technologies, San Diego, CA) to the flask and then incubating at 37° C. for 5 minutes. Detached cells were then recovered by the addition of 40 mL of CHO-serum-free media supplemented with 25 mM HEPES, and rocked gently in a 50 mL conical tube for 20 minutes prior to patch-clamp assay. After recovery, cells were pelleted by centrifugation at 1,000 RPM for 1 minute in a compact bench top centrifuge; recovery media was aspirated and cells were resuspended in external recording solution (150 mM NaCl, 5 mM KCl, 2 mM CaCl2, 1 mM MgCl2, 10 mM HEPES, 12 mM dextrose) to a density of 5.0×10^6 cells/mL. The cell suspension was added to the cell inlet wells on an IonFlux HT population patch plate which had previously been rinsed and primed with deionized H2O. Test compounds were serially diluted in DMSO and then resuspended to the final test concentration in external recording solution, with, or without 40 μM acetylcholine added to the external recording solution; test compounds were then transferred to the IonFlux HT population patch plate. Internal recording solution (110 mM TrisPO4, 28 mM TrisBase, 0.1 mM CaCl2, 2 mM MgCl2, 11 mM EGTA, 4 mM MgATP) was added to the internal recording solution inlet wells on the IonFlux HT patch plate previously loaded with cells and test compounds, and the plate loaded into the IonFlux HT instrument. A protocol was executed on the IonFlux HT to trap the cells, break into the cells, and establish the whole-cell recording configuration; cells were voltage-clamped at a holding potential of −60 mV for the duration of the experiment, all experiments were conducted at room temperature, and the IonFlux HT injection pressure was 8 psi for solution applications. Upon establishing the whole-cell configuration, external recording solution was perfused into the recording chambers for 120 seconds and then 40 μM acetylcholine was applied for 1 second and immediately washed off with external recording solution for 60 seconds. […]

T1 sequence (P36544 23-502): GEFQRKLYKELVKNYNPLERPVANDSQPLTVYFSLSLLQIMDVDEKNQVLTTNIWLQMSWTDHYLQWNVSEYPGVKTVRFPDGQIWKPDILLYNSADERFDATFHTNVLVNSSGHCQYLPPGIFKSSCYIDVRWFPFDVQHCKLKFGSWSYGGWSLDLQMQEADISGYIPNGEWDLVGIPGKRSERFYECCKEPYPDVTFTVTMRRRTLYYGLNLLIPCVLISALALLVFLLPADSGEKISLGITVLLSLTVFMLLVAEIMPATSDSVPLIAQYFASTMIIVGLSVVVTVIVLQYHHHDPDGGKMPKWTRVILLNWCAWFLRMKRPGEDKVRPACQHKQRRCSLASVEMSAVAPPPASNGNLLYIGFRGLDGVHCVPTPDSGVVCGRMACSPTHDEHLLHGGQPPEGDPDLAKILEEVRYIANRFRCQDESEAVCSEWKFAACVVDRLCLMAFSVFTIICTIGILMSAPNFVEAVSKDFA

EC50 (read-out: α7 nAChR EC50) [µM]	EC50 (read-out: α7 nAChR Potency) [µM]	Structure (SMILES)
0.31	0.1 to 0.5	NS(=O)(=O)N1CCC2(CC2COc2cccc(OCC(F)(F)F)n2)C(F)(F)C1 (racemic) [Example A39, 4,4-difluoro-1-({[6-(2,2,2-trifluoroethoxy)pyridin-2-yl]oxy}methyl)-6-azaspiro[2.5]octane-6-sulfonamide]
6.2	5 to 50	COc1ccc(OC[C@@H]2CC23CCN(S(N)(=O)=O)CC3)c(OC)n1 [Example A1, (1R)-1-{[(2,6-dimethoxypyridin-3-yl)oxy]methyl}-6-azaspiro[2.5]octane-6-sulfonamide]
0.55	0.5 to 5	NS(=O)(=O)N1CCC2(CC1)C(COc1ccnc(OCC(F)(F)F)c1)C2(F)F (single isomer, unassigned) [Example A34, 1,1-difluoro-2-({[2-(2,2,2-trifluoroethoxy)pyridin-4-yl]oxy}methyl)-6-azaspiro[2.5]octane-6-sulfonamide]
0.09	≤ 0.1	Cn1nc(C(F)(F)F)cc1OCC1C(F)(F)C12CCN(S(N)(=O)=O)CC2 (single isomer, unassigned) [Example A11, 1,1-difluoro-2-({[1-methyl-3-(trifluoromethyl)-1H-pyrazol-5-yl]oxy}methyl)-6-azaspiro[2.5]octane-6-sulfonamide]
0.058	≤ 0.1	NS(=O)(=O)N1CCC2(CC1)C(COc1cccc(OCC(F)(F)F)c1)C2(F)F (single isomer, unassigned) [Example A30, 1,1-difluoro-2-{[3-(2,2,2-trifluoroethoxy)phenoxy]methyl}-6-azaspiro[2.5]octane-6-sulfonamide]
0.48	0.1 to 0.5	CC(C)(O)c1cccc(OC[C@@H]2CC23CCN(S(N)(=O)=O)CC3)n1 [Example A52, (1R)-1-({[6-(2-hydroxypropan-2-yl)pyridin-2-yl]oxy}methyl)-6-azaspiro[2.5]octane-6-sulfonamide]
0.025	≤ 0.1	COc1ccc(Cl)cc1OCC1C(F)(F)C12CCN(S(N)(=O)=O)CC2 (single isomer, unassigned) [Example A2, 2-[(5-chloro-2-methoxyphenoxy)methyl]-1,1-difluoro-6-azaspiro[2.5]octane-6-sulfonamide]
1.3	0.5 to 5	COc1ccc(Cl)cc1OCC1C(F)(F)C12CCN(S(N)(=O)=O)CC2 (single isomer, unassigned) [Example A3, 2-[(5-chloro-2-methoxyphenoxy)methyl]-1,1-difluoro-6-azaspiro[2.5]octane-6-sulfonamide]
0.15	0.1 to 0.5	NS(=O)(=O)N1CCC2(CC1)C(CSc1ccc(C(F)(F)F)cc1)C2(F)F (single isomer, unassigned) [Example A44, 1,1-difluoro-2-({[4-(trifluoromethyl)phenyl]sulfanyl}methyl)-6-azaspiro[2.5]octane-6-sulfonamide]
0.019	≤ 0.1	NS(=O)(=O)N1CCC2(CC1)C(COc1cccc(OCC(F)(F)F)n1)C2(F)F (single isomer, unassigned) [Example A40, 1,1-difluoro-2-({[6-(2,2,2-trifluoroethoxy)pyridin-2-yl]oxy}methyl)-6-azaspiro[2.5]octane-6-sulfonamide]
0.64	0.5 to 5	CC(C)c1cccc(OC[C@@H]2CC23CCN(S(N)(=O)=O)CC3)n1 [Example A53, (1R)-1-({[6-(propan-2-yl)pyridin-2-yl]oxy}methyl)-6-azaspiro[2.5]octane-6-sulfonamide]
0.18	0.1 to 0.5	NS(=O)(=O)N1CCC2(CC1)C[C@H]2COc1cccc(OC(F)(F)F)c1 [Example A24, (1R)-1-{[3-(trifluoromethoxy)phenoxy]methyl}-6-azaspiro[2.5]octane-6-sulfonamide]
0.31	0.1 to 0.5	NS(=O)(=O)N1CCC2(CC1)C(COc1cccc(OC(F)F)c1)C2(F)F (single isomer, unassigned) [Example A29, 2-{[3-(difluoromethoxy)phenoxy]methyl}-1,1-difluoro-6-azaspiro[2.5]octane-6-sulfonamide]
0.089	≤ 0.1	NS(=O)(=O)N1CCC2(CC1)C(COc1cc(F)ccc1C(F)(F)F)C2(F)F (single isomer, unassigned) [Example A8, 1,1-difluoro-2-{[5-fluoro-2-(trifluoromethyl)phenoxy]methyl}-6-azaspiro[2.5]octane-6-sulfonamide]
1.1	0.5 to 5	N#Cc1cccc(OC[C@@H]2CC23CCN(S(N)(=O)=O)CC3)n1 [Example A47, (1R)-1-{[(6-cyanopyridin-2-yl)oxy]methyl}-6-azaspiro[2.5]octane-6-sulfonamide]
0.15	0.1 to 0.5	NS(=O)(=O)N1CCC2(CC1)CC2COc1cccc(OC(F)F)c1 (racemic) [Example A23, 1-{[3-(difluoromethoxy)phenoxy]methyl}-6-azaspiro[2.5]octane-6-sulfonamide]
1.4	0.5 to 5	COc1ccccc1NC(=O)[C@@H]1CC12CCN(S(N)(=O)=O)CC2 [Example B1, (1R)—N-(2-methoxyphenyl)-6-sulfamoyl-6-azaspiro[2.5]octane-1-carboxamide]
0.2	0.1 to 0.5	COc1ccc(Cl)cc1NC(=O)[C@@H]1CC12CCN(S(N)(=O)=O)CC2 [Example 13, (1R)—N-(5-Chloro-2-methoxyphenyl)-6-sulfamoyl-6-azaspiro[2.5]octane-1-carboxamide]
1.3	0.5 to 5	NS(=O)(=O)N1CCC2(CC1)C(CSc1nnnn1-c1ccccc1)C2(F)F (single isomer, unassigned) [Example A61, 1,1-difluoro-2-{[(1-phenyl-1H-tetrazol-5-yl)sulfanyl]methyl}-6-azaspiro[2.5]octane-6-sulfonamide]
1.2	0.5 to 5	NS(=O)(=O)N1CCC2(CC1)C[C@H]2COCc1cccc(OCC(F)(F)F)n1 [Example 9, (1R)-1-({[6-(2,2,2-Trifluoroethoxy)pyridin-2-yl]methoxy}methyl)-6-azaspiro[2.5]octane-6-sulfonamide]
0.74	0.5 to 5	CC(F)(F)c1cccc(OC[C@@H]2CC23CCN(S(N)(=O)=O)CC3)n1 [Example A56, (1R)-1-({[6-(1,1-difluoroethyl)pyridin-2-yl]oxy}methyl)-6-azaspiro[2.5]octane-6-sulfonamide]
0.93	0.5 to 5	NS(=O)(=O)N1CCC2(CC1)C(COc1ccnc(OC(F)F)c1)C2(F)F (single isomer, unassigned) [Example 3, 2-({[2-(Difluoromethoxy)pyridin-4-yl]oxy}methyl)-1,1-difluoro-6-azaspiro[2.5]octane-6-sulfonamide]
0.7	0.5 to 5	Cc1cc(OCC2CC23CCN(S(N)(=O)=O)CC3)n(-c2ccccc2)n1 (racemic) [Example A14, 1-{[(3-methyl-1-phenyl-1H-pyrazol-5-yl)oxy]methyl}-6-azaspiro[2.5]octane-6-sulfonamide]
1.2	0.5 to 5	NS(=O)(=O)N1CCC2(CC1)CC2COc1ccc(F)cc1C(F)(F)F (single isomer, unassigned) [Example A7, 1-{[4-fluoro-2-(trifluoromethyl)phenoxy]methyl}-6-azaspiro[2.5]octane-6-sulfonamide]
0.022	≤ 0.1	COc1ccc(Cl)cc1NC[C@@H]1C(F)(F)C12CCN(S(N)(=O)=O)CC2 [Example A59, (2R)-2-{[(5-chloro-2-methoxyphenyl)amino]methyl}-1,1-difluoro-6-azaspiro[2.5]octane-6-sulfonamide]
